Laboratory results from patent US9296723B2, “NAMPT inhibitors” (AbbVie Inc., priority 2012, dated 2016).

Columns and labels:
NAMPT [1] = target: T1, NAMPT (Homo sapiens, UniProt P43490); experiment: Time-Resolved Fluorescence Resonance Energy Transfer (TR-FRET) Binding Assay of NAMPT; settings: 6.8 nM NAMPT, 200 nM probe, equilibrated 3 hours, no substrates
Outline: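 Compound was mixed with enzyme, probe and antibody and equilibrated 3 h at room temperature. TR-FRET read at Ex 337 nm, Em 520/495 nm. Ratios were normalized to controls and fitted to a four-parameter logistic equation for IC50.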

NAMPT [2] = target: T1, NAMPT; experiment: TR-FRET Binding Assay of NAMPT with PRPP; settings: 2 nM NAMPT, 2 nM probe, 200 µM PRPP and 2.5 mM ATP, equilibrated 16 hours
Outline: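 TR-FRET probe displacement with 2 nM NAMPT, 2 nM probe and 1 nM Tb-anti-His antibody in the presence of 200 µM PRPP and 2.5 mM ATP, 2% DMSO (all final). Equilibrated 16 hours before reading to permit possible enzymatic modification of compounds.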

PC3 cells = experiment: NAMPT Cell Proliferation Assay (Cell Titer Glo); type: cell-based; settings: Homo sapiens, PC-3, 120 h, incubated 5 days, cell viability
Outline: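 PC3 cells (500/well, RPMI with 10% heat-inactivated FBS) were exposed to 10-fold compound dilutions from […] for 5 days at 37 °C, 5% CO2. Viability was read with Cell Titer Glo; IC50 from sigmoidal fit of percent inhibition.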

T1 sequence (P43490 whole entry): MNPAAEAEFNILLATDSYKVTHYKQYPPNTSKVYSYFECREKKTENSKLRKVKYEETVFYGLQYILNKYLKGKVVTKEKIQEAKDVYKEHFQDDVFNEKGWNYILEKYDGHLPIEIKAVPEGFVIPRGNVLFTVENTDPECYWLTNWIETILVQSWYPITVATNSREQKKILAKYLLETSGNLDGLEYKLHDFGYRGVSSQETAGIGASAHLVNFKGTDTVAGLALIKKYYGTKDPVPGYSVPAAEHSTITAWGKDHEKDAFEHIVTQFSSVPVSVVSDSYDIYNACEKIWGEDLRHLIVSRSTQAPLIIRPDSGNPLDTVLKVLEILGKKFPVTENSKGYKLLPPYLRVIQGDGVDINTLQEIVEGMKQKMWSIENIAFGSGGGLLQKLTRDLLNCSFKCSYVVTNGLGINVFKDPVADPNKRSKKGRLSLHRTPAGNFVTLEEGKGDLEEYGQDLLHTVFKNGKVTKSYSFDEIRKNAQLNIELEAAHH

`O=C(CC1CCOCC1)N1CCC(Oc2ccc(NC(=O)N3CCN(c4cccnc4)CC3)cc2)CC1` [Example 162, 4-(pyridin-3-yl)-N-(4-{[1-(tetrahydro-2H-pyran-4-ylacetyl)piperidin-4-yl]oxy}phenyl)piperazine-1-carboxamide] was tested, and the IC50 (NAMPT [1]) was 0.357 µM, the IC50 (NAMPT [2]) was 0.000574 µM and the IC50 (PC3 cells) was 0.269 µM.

With `N#Cc1ccc(NC(=O)N2CC(c3cccnc3)C2)cc1` [Example 14, N-(4-cyanophenyl)-3-(pyridin-3-yl)azetidine-1-carboxamide] the IC50 (NAMPT [1]) was 0.879 µM, the IC50 (NAMPT [2]) was 0.000178 µM and the IC50 (PC3 cells) was 6.68 µM.

Work on `O=C(CC1CCCCC1)N1CC(c2ccc(NC(=O)N3CC(c4cccnc4)C3)cc2)C1` [Example 212, N-{4-[1-(cyclohexylacetyl)azetidin-3-yl]phenyl}-3-(pyridin-3-yl)azetidine-1-carboxamide] yielded an IC50 (NAMPT [1]) of 0.0409 µM, an IC50 (NAMPT [2]) of 0.000464 µM and an IC50 (PC3 cells) of 0.0206 µM.

For `CCC(C)(C)C(=O)N1CC(Oc2ccc(NC(=O)N3CC(c4cccnc4)C3)cc2)C1` [Example 131, N-(4-{[1-(2,2-dimethylbutanoyl)azetidin-3-yl]oxy}phenyl)-3-(pyridin-3-yl)azetidine-1-carboxamide], the IC50 (NAMPT [1]) was 0.00772 µM, the IC50 (NAMPT [2]) was 0.000491 µM and the IC50 (PC3 cells) was 0.00818 µM.

Work on `CCOCC(=O)N1CC=C(c2ccc(NC(=O)N3CC(c4cccnc4)C3)cc2)CC1` [Example 22, N-{4-[1-(ethoxyacetyl)-1,2,3,6-tetrahydropyridin-4-yl]phenyl}-3-(pyridin-3-yl)azetidine-1-carboxamide] yielded an IC50 (NAMPT [1]) of 0.143 µM, an IC50 (NAMPT [2]) of 0.00063 µM and an IC50 (PC3 cells) of 0.276 µM.

`CC(=O)N1CC(Oc2ccc(NC(=O)N3CC(c4cccnc4)C3)cc2)C1` [Example 137, N-{4-[(1-acetylazetidin-3-yl)oxy]phenyl}-3-(pyridin-3-yl)azetidine-1-carboxamide] was tested, and the IC50 (NAMPT [1]) was 0.0988 µM, the IC50 (NAMPT [2]) was 0.00044 µM and the IC50 (PC3 cells) was 0.0516 µM.

With `CCOCCC(=O)N1CC[C@@H](Oc2ccc(NC(=O)N3CC(c4cccnc4)C3)cc2)C1` [Example 314, N-(4-{[(3R)-1-(3-ethoxypropanoyl)pyrrolidin-3-yl]oxy}phenyl)-3-(pyridin-3-yl)azetidine-1-carboxamide] the IC50 (NAMPT [1]) was 0.11 µM, the IC50 (NAMPT [2]) was 0.000178 µM and the IC50 (PC3 cells) was 0.0839 µM.

Compound `CC1CC1C(=O)N1CC[C@@H](Oc2ccc(NC(=O)N3CC(c4cccnc4)C3)cc2)C1` (stereo partly drawn) [Example 301, N-[4-({(3R)-1-[(2-methylcyclopropyl)carbonyl]pyrrolidin-3-yl}oxy)phenyl]-3-(pyridin-3-yl)azetidine-1-carboxamide] has an IC50 (NAMPT [1]) of 0.059 µM, an IC50 (NAMPT [2]) of 0.000243 µM and an IC50 (PC3 cells) of 0.0219 µM.

For `Cc1ccc(C(=O)N2CCC(c3ccc(NC(=O)N4CC(c5cccnc5)C4)cc3)CC2)s1` [Example 189, N-(4-{1-[(5-methylthiophen-2-yl)carbonyl]piperidin-4-yl}phenyl)-3-(pyridin-3-yl)azetidine-1-carboxamide], the IC50 (NAMPT [1]) was 0.0226 µM, the IC50 (NAMPT [2]) was 0.00021 µM and the IC50 (PC3 cells) was 0.0217 µM.

For `CC[C@H](C)C(=O)N1CCC(Oc2ccc(NC(=O)N3CC(c4cccnc4)C3)cc2)CC1` [Example 4, N-[4-({1-[(2S)-2-methylbutanoyl]piperidin-4-yl}oxy)phenyl]-3-(pyridin-3-yl)azetidine-1-carboxamide], the IC50 (NAMPT [1]) was 0.0197 µM, the IC50 (NAMPT [2]) was 0.000195 µM and the IC50 (PC3 cells) was 0.014 µM.

Work on `COCCOCC(=O)N1CC(c2ccc(NC(=O)N3CC(c4cccnc4)C3)cc2)C1` [Example 210, N-(4-{1-[(2-methoxyethoxy)acetyl]azetidin-3-yl}phenyl)-3-(pyridin-3-yl)azetidine-1-carboxamide] yielded an IC50 (NAMPT [1]) of 0.206 µM, an IC50 (NAMPT [2]) of 0.000356 µM and an IC50 (PC3 cells) of 0.218 µM.

With `O=C(Nc1ccc(C2CCN(C(=O)[C@H]3CCCO3)C2)cc1)N1CC(c2cccnc2)C1` (stereo partly drawn) [Example 67, 3-(pyridin-3-yl)-N-(4-{1-[(2R)-tetrahydrofuran-2-ylcarbonyl]pyrrolidin-3-yl}phenyl)azetidine-1-carboxamide] the IC50 (NAMPT [1]) was 0.173 µM, the IC50 (NAMPT [2]) was 0.000171 µM and the IC50 (PC3 cells) was 0.0785 µM.

With `CC(C)C(C)C(=O)N1CCC(c2ccc(NC(=O)N3CC(c4cccnc4)C3)cc2)C1` (stereo not drawn) [Example 296, N-{4-[1-(2,3-dimethylbutanoyl)pyrrolidin-3-yl]phenyl}-3-(pyridin-3-yl)azetidine-1-carboxamide] the IC50 (NAMPT [1]) was 0.0264 µM, the IC50 (NAMPT [2]) was 0.000243 µM and the IC50 (PC3 cells) was 0.0198 µM.

In the case of `CCOCCC(=O)N1CCC(c2ccc(NC(=O)N3CC(c4cccnc4)C3)cc2)C1` (stereo not drawn) [Example 274, N-{4-[1-(3-ethoxypropanoyl)pyrrolidin-3-yl]phenyl}-3-(pyridin-3-yl)azetidine-1-carboxamide], the IC50 (NAMPT [1]) is reported as 0.0822 µM, the IC50 (NAMPT [2]) is reported as 0.000264 µM and the IC50 (PC3 cells) is reported as 0.0685 µM.

Work on `CCOCC(=O)N1CCC(c2ccc(NC(=O)N3CC(c4cccnc4)C3)cc2)C1` (stereo not drawn) [Example 288, N-{4-[1-(ethoxyacetyl)pyrrolidin-3-yl]phenyl}-3-(pyridin-3-yl)azetidine-1-carboxamide] yielded an IC50 (NAMPT [1]) of 0.117 µM, an IC50 (NAMPT [2]) of 0.000227 µM and an IC50 (PC3 cells) of 0.084 µM.

Work on `O=C(Nc1ccc(O[C@@H]2CCN(C(=O)c3ccsc3)C2)cc1)N1CC(c2cccnc2)C1` [Example 308, 3-(pyridin-3-yl)-N-(4-{[(3R)-1-(thiophen-3-ylcarbonyl)pyrrolidin-3-yl]oxy}phenyl)azetidine-1-carboxamide] yielded an IC50 (NAMPT [1]) of 0.0242 µM, an IC50 (NAMPT [2]) of 0.000293 µM and an IC50 (PC3 cells) of 0.00961 µM.

With `O=C(Nc1ccc(O[C@@H]2CCN(C(=O)C3CCCCC3)C2)cc1)N1CC(c2cccnc2)C1` [Example 332, N-(4-{[(3R)-1-(cyclohexylcarbonyl)pyrrolidin-3-yl]oxy}phenyl)-3-(pyridin-3-yl)azetidine-1-carboxamide] the IC50 (NAMPT [1]) was 0.0617 µM, the IC50 (NAMPT [2]) was 0.000474 µM and the IC50 (PC3 cells) was 0.0222 µM.

In the case of `CC(C)(C)CC(=O)N1CC(Oc2ccc(NC(=O)N3CC(c4cccnc4)C3)cc2)C1` [Example 133, N-(4-{[1-(3,3-dimethylbutanoyl)azetidin-3-yl]oxy}phenyl)-3-(pyridin-3-yl)azetidine-1-carboxamide], the IC50 (NAMPT [1]) is reported as 0.0132 µM, the IC50 (NAMPT [2]) is reported as 0.000358 µM and the IC50 (PC3 cells) is reported as 0.00443 µM.

`CC[C@H](C)C(=O)N1CC=C(c2ccc(NC(=O)N3CC(c4cccnc4)C3)cc2)CC1` [Example 9, N-(4-{1-[(2S)-2-methylbutanoyl]-1,2,3,6-tetrahydropyridin-4-yl}phenyl)-3-(pyridin-3-yl)azetidine-1-carboxamide] gave an IC50 (NAMPT [1]) of 0.0163 µM, an IC50 (NAMPT [2]) of 0.000346 µM and an IC50 (PC3 cells) of 0.00682 µM.

In the case of `CCCC(=O)N1CCC(Oc2ccc(NC(=O)N3CC(c4cccnc4)C3)cc2)CC1` [Example 43, N-{4-[(1-butanoylpiperidin-4-yl)oxy]phenyl}-3-(pyridin-3-yl)azetidine-1-carboxamide], the IC50 (NAMPT [1]) is reported as 0.0237 µM, the IC50 (NAMPT [2]) is reported as 0.000234 µM and the IC50 (PC3 cells) is reported as 0.028 µM.

With `CC(C)CN1CCC(c2ccc(NC(=O)N3CC(c4cccnc4)C3)cc2)CC1` [Example 235, N-{4-[1-(2-methylpropyl)piperidin-4-yl]phenyl}-3-(pyridin-3-yl)azetidine-1-carboxamide] the IC50 (NAMPT [1]) was 0.649 µM, the IC50 (NAMPT [2]) was 0.000213 µM and the IC50 (PC3 cells) was 0.993 µM.

For `CC(C)(C)CC(=O)N1CCC(c2ccc(NC(=O)N3CC(c4cccnc4)C3)cc2)C1` (stereo not drawn) [Example 289, N-{4-[1-(3,3-dimethylbutanoyl)pyrrolidin-3-yl]phenyl}-3-(pyridin-3-yl)azetidine-1-carboxamide], the IC50 (NAMPT [1]) was 0.0296 µM, the IC50 (NAMPT [2]) was 0.000204 µM and the IC50 (PC3 cells) was 0.0352 µM.

Compound `COCC(=O)N1CCC(c2ccc(NC(=O)N3CC(c4cccnc4)C3)cc2)C1` (stereo not drawn) [Example 292, N-{4-[1-(methoxyacetyl)pyrrolidin-3-yl]phenyl}-3-(pyridin-3-yl)azetidine-1-carboxamide] has an IC50 (NAMPT [1]) of 0.268 µM, an IC50 (NAMPT [2]) of 0.000259 µM and an IC50 (PC3 cells) of 0.0878 µM.
